Patent publication US10344060B2 (priority 2013, dated 2019)
“And” between values parts separate entries of the source, which are not always exact repeats. Equal entries are not always repeated.

Biological target: hNav1.7 (Homo sapiens, UniProt Q15858)
Test: cell-based
Conditions: ratio of IonWorks Quattro IC50 values, Nav1.4 over Nav1.7

Chain of hNav1.7 (Q15858 whole entry): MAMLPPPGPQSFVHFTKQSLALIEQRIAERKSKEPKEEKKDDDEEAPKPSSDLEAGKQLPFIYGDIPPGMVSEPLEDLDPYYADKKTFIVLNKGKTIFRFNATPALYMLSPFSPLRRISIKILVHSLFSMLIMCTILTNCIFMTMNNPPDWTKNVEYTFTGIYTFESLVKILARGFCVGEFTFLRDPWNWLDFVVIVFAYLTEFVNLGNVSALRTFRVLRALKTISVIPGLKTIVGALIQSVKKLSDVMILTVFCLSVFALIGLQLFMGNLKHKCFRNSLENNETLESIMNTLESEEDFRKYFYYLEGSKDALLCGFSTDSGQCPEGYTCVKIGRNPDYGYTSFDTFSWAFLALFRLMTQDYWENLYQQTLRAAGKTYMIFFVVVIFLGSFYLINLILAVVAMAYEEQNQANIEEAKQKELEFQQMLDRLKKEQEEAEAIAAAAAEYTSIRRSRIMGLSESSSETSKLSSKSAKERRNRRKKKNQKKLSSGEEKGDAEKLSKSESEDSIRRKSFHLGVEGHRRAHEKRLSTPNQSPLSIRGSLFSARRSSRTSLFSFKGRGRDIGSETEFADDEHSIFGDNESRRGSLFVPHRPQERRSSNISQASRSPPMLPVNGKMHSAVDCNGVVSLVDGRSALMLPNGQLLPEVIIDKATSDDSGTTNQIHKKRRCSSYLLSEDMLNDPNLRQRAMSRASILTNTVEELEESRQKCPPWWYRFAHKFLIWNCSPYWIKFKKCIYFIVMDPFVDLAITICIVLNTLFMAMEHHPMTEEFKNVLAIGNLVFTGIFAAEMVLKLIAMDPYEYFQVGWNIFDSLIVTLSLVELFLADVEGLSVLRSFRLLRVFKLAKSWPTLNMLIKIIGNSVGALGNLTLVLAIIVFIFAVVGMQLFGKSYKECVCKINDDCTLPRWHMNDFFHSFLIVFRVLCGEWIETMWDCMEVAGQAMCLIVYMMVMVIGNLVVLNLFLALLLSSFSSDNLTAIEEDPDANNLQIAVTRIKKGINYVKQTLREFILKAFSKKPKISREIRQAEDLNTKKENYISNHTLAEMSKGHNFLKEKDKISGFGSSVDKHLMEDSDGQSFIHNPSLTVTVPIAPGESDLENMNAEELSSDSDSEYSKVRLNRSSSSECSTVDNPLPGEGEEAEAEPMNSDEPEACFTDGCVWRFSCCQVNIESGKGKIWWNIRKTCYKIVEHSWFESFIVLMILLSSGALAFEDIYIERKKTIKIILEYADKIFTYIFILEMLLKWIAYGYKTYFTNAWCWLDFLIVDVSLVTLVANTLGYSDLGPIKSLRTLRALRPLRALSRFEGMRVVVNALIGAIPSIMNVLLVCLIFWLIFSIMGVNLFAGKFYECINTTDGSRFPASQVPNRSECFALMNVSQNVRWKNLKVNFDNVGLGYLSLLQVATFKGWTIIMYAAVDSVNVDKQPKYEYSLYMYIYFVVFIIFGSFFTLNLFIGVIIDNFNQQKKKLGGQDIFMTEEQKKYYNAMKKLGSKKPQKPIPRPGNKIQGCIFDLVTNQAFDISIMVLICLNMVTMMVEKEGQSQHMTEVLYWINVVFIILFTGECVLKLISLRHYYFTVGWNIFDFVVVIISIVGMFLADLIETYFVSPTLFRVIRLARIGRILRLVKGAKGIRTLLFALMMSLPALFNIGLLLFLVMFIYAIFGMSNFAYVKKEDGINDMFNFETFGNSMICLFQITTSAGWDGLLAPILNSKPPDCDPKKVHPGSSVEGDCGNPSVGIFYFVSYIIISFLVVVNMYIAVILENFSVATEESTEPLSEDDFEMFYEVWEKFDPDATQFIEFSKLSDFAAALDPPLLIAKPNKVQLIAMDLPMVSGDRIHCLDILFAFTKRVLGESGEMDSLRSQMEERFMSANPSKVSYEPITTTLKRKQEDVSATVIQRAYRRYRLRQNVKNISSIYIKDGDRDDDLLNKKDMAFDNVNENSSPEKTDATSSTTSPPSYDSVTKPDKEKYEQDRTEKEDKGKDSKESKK

Point of comparison: `CC[C@H](C)[C@H](NC(=O)[C@H](Cc1ccc(C(=O)O)cc1)NC(=O)[C@H](CCCCN)NC(=O)[C@H](CCCNC(=N)N)NC(=O)[C@@H]1CSSC[C@@H]2NC(=O)[C@H](C)NC(=O)[C@H](CCCNC(=N)N)NC(=O)[C@H](CCCCN)NC(=O)[C@H](CO)NC(=O)[C@H](CC(=O)O)NC(=O)[C@@H]3CSSC[C@H](NC(=O)[C@H](CCC(=O)O)NC(=O)[C@H](CC(C)C)NC(=O)CNC(=O)[C@H](CCC(=O)O)NC(=O)[C@H](CSSC[C@H](NC(=O)[C@@H](N)Cc4ccc(O)cc4)C(=O)N[C@@H](CCC(N)=O)C(=O)N[C@@H](CCCCN)C(=O)N[C@@H](Cc4c[nH]c5ccccc45)C(=O)N[C@@H](CCSC)C(=O)N[C@@H](Cc4c[nH]c5ccccc45)C(=O)N[C@@H]([C@@H](C)O)C(=O)N3)NC2=O)C(=O)N[C@@H](CCCCN)C(=O)N[C@@H](CC(C)C)C(=O)N[C@@H](Cc2c[nH]c3ccccc23)C(=O)N1)C(N)=O` [compound 127], Nav1.4/Nav1.7 2. Against it:
- CC[C@H](C)[C@H](NC(=O)[C@@H](NC(=O)[C@H](CCCCN)NC(=O)[C@H](CCCNC(=N)N)NC(=O)[C@@H]1CSSC[C@@H]2NC(=O)[C@H](C)NC(=O)[C@H](CCCNC(=N)N)NC(=O)[C@H](CCCCN)NC(=O)[C@H](CO)NC(=O)[C@H](CC(=O)O)NC(=O)[C@@H]3CSSC[C@H](NC(=O)[C@H](CCCNC(N)=O)NC(=O)[C@H](CC(C)C)NC(=O)CNC(=O)[C@H](CCC(=O)O)NC(=O)[C@H](CSSC[C@H](NC(=O)[C@@H](N)Cc4ccc(O)cc4)C(=O)N[C@@H](CCC(N)=O)C(=O)N[C@@H](CCCCN)C(=O)N[C@@H](Cc4c[nH]c5ccccc45)C(=O)N[C@@H](CCSC)C(=O)N[C@@H](Cc4c[nH]c5ccccc45)C(=O)N[C@@H]([C@@H](C)O)C(=O)N3)NC2=O)C(=O)N[C@@H](CCCCN)C(=O)N[C@@H](CC(C)C)C(=O)N[C@@H](Cc2c[nH]c3ccccc23)C(=O)N1)[C@@H](C)CC)C(N)=O [compound 122] — higher, 15
- CCC[C@@H]1NC(=O)[C@H](CC(C)C)NC(=O)CNC(=O)[C@H](CCC(=O)O)NC(=O)[C@@H]2CSSC[C@H](NC(=O)[C@@H](N)Cc3ccc(O)cc3)C(=O)N[C@@H](CCC(N)=O)C(=O)N[C@@H](CCCCN)C(=O)N[C@@H](Cc3c[nH]c4ccccc34)C(=O)N[C@@H](CCSC)C(=O)N[C@@H](Cc3c[nH]c4ccccc34)C(=O)N[C@@H]([C@@H](C)O)C(=O)N[C@H]3CSSC[C@H](NC1=O)C(=O)N[C@@H](CCCCN)C(=O)N[C@@H](CC(C)C)C(=O)N[C@@H](Cc1c[nH]c4ccccc14)C(=O)N[C@H](C(=O)N[C@@H](CCCNC(=N)N)C(=O)N[C@@H](CCCCN)C(=O)N[C@H](C(=O)N[C@H](C(N)=O)[C@@H](C)CC)[C@@H](C)CC)CSSC[C@H](NC(=O)[C@H](C)NC(=O)[C@H](CCCNC(=N)N)NC(=O)[C@H](CCCCN)NC(=O)[C@H](CO)NC(=O)[C@H](CC(=O)O)NC3=O)C(=O)N2 [compound 123] — higher, 19
- CC[C@H](C)[C@H](NC(=O)[C@@H](NC(=O)[C@H](CCCCN)NC(=O)[C@H](CCCNC(=N)N)NC(=O)[C@@H]1CSSC[C@@H]2NC(=O)[C@H](C)NC(=O)[C@H](CCCNC(=N)N)NC(=O)[C@H](CCCCN)NC(=O)[C@H](CO)NC(=O)[C@H](CC(=O)O)NC(=O)[C@@H]3CSSC[C@H](NC(=O)[C@H](CO)NC(=O)[C@H](CC(C)C)NC(=O)CNC(=O)[C@H](CCC(=O)O)NC(=O)[C@H](CSSC[C@H](NC(=O)[C@@H](N)Cc4ccc(O)cc4)C(=O)N[C@@H](CCC(N)=O)C(=O)N[C@@H](CCCCN)C(=O)N[C@@H](Cc4c[nH]c5ccccc45)C(=O)N[C@@H](CCSC)C(=O)N[C@@H](Cc4c[nH]c5ccccc45)C(=O)N[C@@H]([C@@H](C)O)C(=O)N3)NC2=O)C(=O)N[C@@H](CCCCN)C(=O)N[C@@H](CC(C)C)C(=O)N[C@@H](Cc2c[nH]c3ccccc23)C(=O)N1)[C@@H](C)CC)C(N)=O [compound 125] — higher, 17
- CC[C@H](C)[C@H](NC(=O)[C@H](CC(=O)O)NC(=O)[C@H](CCCCN)NC(=O)[C@H](CCCNC(=N)N)NC(=O)[C@@H]1CSSC[C@@H]2NC(=O)[C@H](C)NC(=O)[C@H](CCCNC(=N)N)NC(=O)[C@H](CCCCN)NC(=O)[C@H](CO)NC(=O)[C@H](CC(=O)O)NC(=O)[C@@H]3CSSC[C@H](NC(=O)[C@H](CCC(=O)O)NC(=O)[C@H](CC(C)C)NC(=O)CNC(=O)[C@H](CCC(=O)O)NC(=O)[C@H](CSSC[C@H](NC(=O)[C@@H](N)Cc4ccc(O)cc4)C(=O)N[C@@H](CCC(N)=O)C(=O)N[C@@H](CCCCN)C(=O)N[C@@H](Cc4c[nH]c5ccccc45)C(=O)N[C@@H](CCSC)C(=O)N[C@@H](Cc4c[nH]c5ccccc45)C(=O)N[C@@H]([C@@H](C)O)C(=O)N3)NC2=O)C(=O)N[C@@H](CCCCN)C(=O)N[C@@H](CC(C)C)C(=O)N[C@@H](Cc2c[nH]c3ccccc23)C(=O)N1)C(N)=O [compound 128] — higher, 4
- CC[C@H](C)[C@H](NC(=O)[C@H](CC(C)C)NC(=O)[C@H](CCCCN)NC(=O)[C@H](CCCNC(=N)N)NC(=O)[C@@H]1CSSC[C@@H]2NC(=O)[C@H](C)NC(=O)[C@H](CCCNC(=N)N)NC(=O)[C@H](CCCCN)NC(=O)[C@H](CO)NC(=O)[C@H](CC(=O)O)NC(=O)[C@@H]3CSSC[C@H](NC(=O)[C@H](CCC(=O)O)NC(=O)[C@H](CC(C)C)NC(=O)CNC(=O)[C@H](CCC(=O)O)NC(=O)[C@H](CSSC[C@H](NC(=O)[C@@H](N)Cc4ccc(O)cc4)C(=O)N[C@@H](CCC(N)=O)C(=O)N[C@@H](CCCCN)C(=O)N[C@@H](Cc4c[nH]c5ccccc45)C(=O)N[C@@H](CCSC)C(=O)N[C@@H](Cc4c[nH]c5ccccc45)C(=O)N[C@@H]([C@@H](C)O)C(=O)N3)NC2=O)C(=O)N[C@@H](CCCCN)C(=O)N[C@@H](CC(C)C)C(=O)N[C@@H](Cc2c[nH]c3ccccc23)C(=O)N1)C(N)=O [compound 132] — higher, 12

In the case of `CC[C@H](C)[C@H](NC(=O)[C@H](CCC(=O)O)NC(=O)[C@H](CCCCN)NC(=O)[C@H](CCCNC(=N)N)NC(=O)[C@@H]1CSSC[C@@H]2NC(=O)[C@H](C)NC(=O)[C@H](CCCNC(=N)N)NC(=O)[C@H](CCCCN)NC(=O)[C@H](CO)NC(=O)[C@H](CC(=O)O)NC(=O)[C@@H]3CSSC[C@H](NC(=O)[C@H](CCC(=O)O)NC(=O)[C@H](CC(C)C)NC(=O)CNC(=O)[C@H](CCC(=O)O)NC(=O)[C@H](CSSC[C@H](NC(=O)[C@@H](N)Cc4ccc(O)cc4)C(=O)N[C@@H](CCC(N)=O)C(=O)N[C@@H](CCCCN)C(=O)N[C@@H](Cc4c[nH]c5ccccc45)C(=O)N[C@@H](CCSC)C(=O)N[C@@H](Cc4c[nH]c5ccccc45)C(=O)N[C@@H]([C@@H](C)O)C(=O)N3)NC2=O)C(=O)N[C@@H](CCCCN)C(=O)N[C@@H](CC(C)C)C(=O)N[C@@H](Cc2c[nH]c3ccccc23)C(=O)N1)C(N)=O` [compound 126], the Nav1.4/Nav1.7 is reported as 5 and 3.

Same assay, conditions: ratio of IonWorks Quattro IC50 values; Table 8

With `CC[C@H](C)[C@H](NC(=O)[C@H](Cc1ccc(O)cc1)NC(=O)[C@H](CCCCN)NC(=O)[C@H](CCCNC(=N)N)NC(=O)[C@@H]1CSSC[C@@H]2NC(=O)[C@H](C)NC(=O)[C@H](CCCNC(=N)N)NC(=O)[C@H](CCCCN)NC(=O)[C@H](CO)NC(=O)[C@H](CC(=O)O)NC(=O)[C@@H]3CSSC[C@H](NC(=O)[C@H](CCC(=O)O)NC(=O)[C@H](CC(C)C)NC(=O)CNC(=O)[C@H](CCC(=O)O)NC(=O)[C@H](CSSC[C@H](NC(=O)[C@@H](N)Cc4ccc(O)cc4)C(=O)N[C@@H](CCC(N)=O)C(=O)N[C@@H](CCCCN)C(=O)N[C@@H](Cc4c[nH]c5ccccc45)C(=O)N[C@@H](CCSC)C(=O)N[C@@H](CC(N)=O)C(=O)N[C@@H]([C@@H](C)O)C(=O)N3)NC2=O)C(=O)N[C@@H](CCCCN)C(=O)N[C@@H](CC(C)C)C(=O)N[C@@H](Cc2c[nH]c3ccccc23)C(=O)N1)C(N)=O` [compound 215] the Nav1.4/Nav1.7 was 1.
